# According to publication PMC11412156 (Journal of medicinal chemistry, 2024):
# Values joined by “and” are separate entries in the source; they are usually repeats but may differ in a detail not shown here. Equal entries are not always repeated.
# Key:
# [1] = system: LPS-induced RAW264.7 cells; test: Inflammatory factors and iNOS in LPS-induced RAW264.7 cells; type: cell-based
# [2] = system: acetylation of α-tubulin and histone H3 in THP-1 cell; test: Western blot of acetylation of α-tubulin and histone H3 in THP-1 cell; type: cell-based; settings: 1 μM and 2 μM, 24 h
# [3] = system: formalin-induced inflammatory pain in mice; test: Formalin-induced inflammatory pain model in mice; type: in vivo, Kunming mice; settings: for pain response, second phasic response: dose study, Figure 15, compared with the model group
# Acute toxicity test = settings: in vivo
# [4] = system: xylene-induced ear swelling inflammation in mice; test: Xylene-induced ear swelling inflammation model in mice; type: in vivo, Kunming mice; settings: Table 7 dose study
# HDAC6 = biological target: T1, HDAC6 (Homo sapiens, UniProt Q9UBN7); test: HDAC enzyme-based fluorogenic assay, HDAC6; type: biochemical; settings: for HDAC6 inhibitor rate: final concentration of 2 μM, preliminary screen; for Selectivity Index HDAC1/HDAC6 / Selectivity Index HDAC2/HDAC6 / Selectivity Index HDAC3/HDAC6 / Selectivity Index HDAC8/HDAC6 / Selectivity Index HDAC11/HDAC6: ratio of IC50 values
# T1 sequence (Q9UBN7 1-1215): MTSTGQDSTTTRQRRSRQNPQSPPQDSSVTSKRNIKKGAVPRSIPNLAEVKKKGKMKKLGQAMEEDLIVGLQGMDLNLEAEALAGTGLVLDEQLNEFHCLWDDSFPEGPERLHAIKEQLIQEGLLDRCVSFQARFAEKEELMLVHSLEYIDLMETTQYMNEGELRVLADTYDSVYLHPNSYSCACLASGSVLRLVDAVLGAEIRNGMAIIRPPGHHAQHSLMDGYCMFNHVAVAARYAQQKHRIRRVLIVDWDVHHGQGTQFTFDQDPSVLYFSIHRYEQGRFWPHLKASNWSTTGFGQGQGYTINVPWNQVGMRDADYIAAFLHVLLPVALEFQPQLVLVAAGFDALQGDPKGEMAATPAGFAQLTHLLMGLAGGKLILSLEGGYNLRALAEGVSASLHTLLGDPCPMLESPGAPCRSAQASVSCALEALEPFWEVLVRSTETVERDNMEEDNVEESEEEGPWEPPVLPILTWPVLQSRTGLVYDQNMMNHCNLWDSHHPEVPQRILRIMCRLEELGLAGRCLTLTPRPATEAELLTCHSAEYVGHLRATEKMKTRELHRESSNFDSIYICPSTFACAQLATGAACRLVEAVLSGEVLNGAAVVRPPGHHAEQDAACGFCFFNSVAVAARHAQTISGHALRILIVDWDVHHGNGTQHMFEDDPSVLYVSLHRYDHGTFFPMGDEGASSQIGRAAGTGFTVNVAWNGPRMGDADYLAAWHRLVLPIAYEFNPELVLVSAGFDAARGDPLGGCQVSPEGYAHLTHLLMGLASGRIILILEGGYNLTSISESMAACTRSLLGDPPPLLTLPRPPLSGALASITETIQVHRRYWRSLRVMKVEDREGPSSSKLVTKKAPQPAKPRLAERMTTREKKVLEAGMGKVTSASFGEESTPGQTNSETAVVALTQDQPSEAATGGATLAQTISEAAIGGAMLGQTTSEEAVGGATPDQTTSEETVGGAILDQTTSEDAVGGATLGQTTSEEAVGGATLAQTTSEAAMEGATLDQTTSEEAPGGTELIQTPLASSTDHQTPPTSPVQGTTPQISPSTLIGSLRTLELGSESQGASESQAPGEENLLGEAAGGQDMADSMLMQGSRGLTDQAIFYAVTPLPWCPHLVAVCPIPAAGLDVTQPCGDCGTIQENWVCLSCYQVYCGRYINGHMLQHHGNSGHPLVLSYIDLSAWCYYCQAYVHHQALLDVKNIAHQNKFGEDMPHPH
SMILES,IC50 (HDAC6),HDAC6 inhibitor rate (HDAC6),Selectivity Index HDAC1/HDAC6 (HDAC6),Selectivity Index HDAC2/HDAC6 (HDAC6),Selectivity Index HDAC3/HDAC6 (HDAC6),Selectivity Index HDAC8/HDAC6 (HDAC6),Selectivity Index HDAC11/HDAC6 (HDAC6),other results
"O=C(CCCCCCNC(=O)[C@H]1CCCN(C(=O)c2ccc(NC(=O)Nc3ccc(Cl)c(F)c3)c(F)c2)C1)NO [Compound 28g, (S)-1-(4-(3-(4-Chloro-3-fluorophenyl)ureido)-3-fluorobenzoyl)-N-(7-(hydroxyamino)-7-oxoheptyl)piperidine-3-carboxamide]",8 nM,> 91% and 99.78%,144,62,160,8,58,"levels of gene expression of iNOS ([1]; LPS-induced RAW264.7 cells, western blot): suppressed; levels of IL-6, IL-1β, TNF-α and NO ([1]; RAW264.7 cells preconditioned 1–100 µg/mL for 12 h, then LPS 1 µg/mL 12 h, ELISA): significantly reversed this change; acetylation of histone H3 [2]: without affecting histone H3; acetylation of α-tubulin [2]: induced an increase in acetylation of α-tubulin; pain response, second phasic response ([3]; 10 mg/kg): reduced the pain response; pain response, second phasic response ([3]; 30 mg/kg (high-dose)): significantly reduced the pain response; pain response time, first phasic response ([3]; mice, 30 mg/kg intraperitoneally, Figure 13): did not significantly reduce the pain response time; safety in acute toxicity test (Acute toxicity test): good safety; Inhibition rate ([4]; 10 mg/kg by gavage for 7 days): 44.39%; Swelling degree ([4]; 10 mg/kg by gavage for 7 days): 8.7 ± 1.7 mg; Swelling rate ([4]; 10 mg/kg by gavage for 7 days): 69.39%; Inhibition rate ([4]; 30 mg/kg by gavage for 7 days): 67.17%; Swelling degree ([4]; 30 mg/kg by gavage for 7 days): 5.1 ± 0.9 mg; Swelling rate ([4]; 30 mg/kg by gavage for 7 days): 39.50%"
"O=C(CCCCCCNC(=O)[C@H]1CCCN(C(=O)c2ccc(NC(=O)Nc3cc(F)cc(F)c3)c(F)c2)C1)NO [Compound 28j, (S)-1-(4-(3-(3,5-Difluorophenyl)ureido)-3-fluorobenzoyl)-N-(7-(hydroxyamino)-7-oxoheptyl)piperidine-3-carboxamide]",8 nM,> 91% and 98.92%,129,134,327,9,132,–
